# Laboratory results: paper PMC12412453 (Toxicology, 2021)
# Values joined by “and” are separate entries in the source; they are usually repeats but may differ in a detail not shown here. Equal entries are not always repeated. Where two headings read alike, the source gives them in different places.
# How the values were obtained:
# [1] = test system: primary human hepatocytes (PHHs); conditions: ref Seo et al., 2020, cited from earlier work; for BMD50: PHH CometChip data reanalyzed using PROAST; for BMDL50–BMDU50 / Potency ranking / LEC (lowest effective concentration) / BMDU/BMDL / DNA damage (ratio of %DNA in tail at highest concentration to vehicle control): PHH; for BMDL50–BMDU50: 90 % confidence interval of BMD50; for Potency ranking: rank by BMD50 among nine positive compounds; for LEC (lowest effective concentration): lowest concentration positive in comet assay
# [2] = test system: primary human hepatocytes (PHHs); conditions: ref Seo et al., 2020, cited from earlier work; for Max. con.: maximum concentration
# [3] = reported findings; ref References column of Table 1; cited from earlier work
# [4] = reported findings; ref References column of Table 1; cited from earlier work; remark: listed apart in the source
# [5] = test system: primary macaque hepatocytes (PMHs); test: Cytotoxicity by ATP assay; conditions: for Max. con.: maximum concentration
# [6] = test system: primary macaque hepatocytes (PMHs); test: CometChip assay; conditions: for BMDU/BMDL / DNA damage (ratio of %DNA in tail at highest concentration to vehicle control) / LEC (lowest effective concentration) / BMDL50–BMDU50 / Potency ranking: PMH; for BMD50: PMH CometChip data, PROAST exponential model; for DNA damage (ratio of %DNA in tail at highest concentration to vehicle control) / LEC (lowest effective concentration): 24-h treatment; for LEC (lowest effective concentration): lowest concentration positive in comet assay; for BMDL50–BMDU50: 90 % confidence interval of BMD50; for Potency ranking: rank by BMD50 among nine positive compounds
# [7] = reported findings; ref References column of Table 1; cited from earlier work; remark: listed apart in the source
# cynomolgus monkeys = conditions: dosed cynomolgus monkeys; ref Thorgeirsson et al., 1995; cited from earlier work
# [8] = test system: primary macaque hepatocytes (PMHs); conditions: rhesus macaque, 24 h
Compound,BMD50 [1],BMDL50–BMDU50 [1],Potency ranking [1],DNA damage (ratio of %DNA in tail at highest concentration to vehicle control) [1],"Cytotoxicity ([2]; PHH, ATP assay, 24-h treatment)",Max. con. ([2]; PHH),Genotoxicity assay findings in vitro [3],Genotoxicity assay findings in vivo [4],"Max. con. ([5]; PMH, 24-h treatment)","Cytotoxicity ([5]; PMH, ATP assay, 24-h treatment)",other results
"Cc1ccc(N)cc1N [2,4-DAT, 2,4-diaminotoluene]",880.6 µM,489 to 1580 µM,9,++ (2 < ratio ≤ 5),+ (11–30 %),8000 µM,"(+) for MLA, CA, MN, comet, and UDS; (−) for comet in HepaRG and Hprt",(+) for UDS and comet; (+/−) for MN in BM,8000 µM,+ (11–30 %),"LEC (lowest effective concentration) [1]: 1414 µM; BMDU/BMDL [1]: 3.2; BMD50 fold higher in PMHs than in PHHs (lower in PHHs) ([6]; CometChip BMD50, PMH vs PHH): 3.2 fold; BMDU/BMDL [6]: 2.6; BMD50 [6]: 2831 µM; DNA damage (ratio of %DNA in tail at highest concentration to vehicle control) [6]: ++ (2 < ratio ≤ 5); LEC (lowest effective concentration) [6]: 8000 µM; BMDL50–BMDU50 [6]: 1790 to 4660 µM; Potency ranking [6]: 9"
"CCCC(O)C(CC)CO (stereo not drawn) [2-Ethyl-1,3-hexanediol]",–,–,–,− (The ratio ≤ 1.5-fold and p ≥ 0.05),+ (11–30 %),"10,000 μM","(+) for CA + S9; (−) for MLA, Hprt, MN, and SCE",–,"10,000 μM",+ (11–30 %),Carcinogenicity [7]: (−) in dermal studies
"O=[N+]([O-])c1cc[n+]([O-])c2ccccc12 [4-NQO, 4-nitroquinoline 1-oxide]",0.3 µM,0.1 to 0.6 µM,1,–,+ (11–30 %),5 µM,"(+) for CA, MLA, Pig-a, comet",–,7.5 µM,+ (11–30 %),–
"Cc1cnc2ccc3c(nc(N)n3C)c2n1 [8-MeIQx, 2-amino-3,8-dimethylimidazo[4,5-f]-quinoxaline]",–,–,–,–,–,–,–,–,–,–,"DNA adducts in several organs, particularly liver, kidney, and heart (cynomolgus monkeys): high levels of DNA adducts"
"c1ccc2c(c1)cc1ccc3cccc4ccc2c1c34 [B[a]P, benzo[a]pyrene]",9.2 µM,5.2 to 16.3 µM,5,–,+ (11–30 %),100 µM,"(+) for MLA, CA, MN, Pig-a, comet, Hprt, and UDS","(+) for comet, MN, Pig-a and gene mutations",–,+ (11–30 %),Max. con. [8]: 100 µM
"[Cl][Cd][Cl] [CdCl2, cadmium chloride]",0.9 µM,0.5 to 1.6 µM,2,"+ (1.5 < ratio ≤ 2, and p < 0.05)",+ (11–30 %),4 µM,"(+) for MN, CA, MLA, Hprt, comet","(+) for CA and MN, comet in liver",4 µM,++ (31–50 %),"LEC (lowest effective concentration) [1]: 1 µM; BMDU/BMDL [1]: 3.2; Cytotoxicity ([2]; PHHs, 4 μM): 25%; Carcinogenicity [7]: (+) for lung, prostate, etc.; Cytotoxicity ([5]; PMHs, 4 μM, 24-h exposure): 43%; BMDU/BMDL [6]: 2.3; BMD50 [6]: 0.37 µM and 0.4 µM; DNA damage (ratio of %DNA in tail at highest concentration to vehicle control) [6]: +++ (the ratio > 5); LEC (lowest effective concentration) [6]: 2 µM; BMDL50–BMDU50 [6]: 0.2 to 0.5 µM; Potency ranking [6]: 1; fold increase in % tail DNA (DNA damage) compared to the vehicle control ([6]; PMHs, highest acceptable concentration, range given for four compounds together): 6.1–8.1 fold"
COc1cc2c(c(OC)c1OC)-c1ccc(OC)c(=O)cc1[C@@H](NC(C)=O)CC2 [Colchicine],–,–,–,–,+ (11–30 %),–,–,–,–,+ (11–30 %),–
COc1cc(/C=C/C(=O)CC(=O)/C=C/c2ccc(O)c(OC)c2)ccc1O [Curcumin],–,–,–,–,+ (11–30 %),40 µM,–,–,40 µM,+ (11–30 %),–
